Data from patent publication US6455540B1, “Methods of use of quinolone compounds against anaerobic pathogenic bacteria” (priority 1999, dated 2002).

Key:
Assay in all cases: Agar dilution MIC
[1] = tested on: Prevotella melaninogenica; type: cell-based; details: 12 isolates
Prevotella intermedia = type: cell-based; details: Prevotella intermedia, 11 isolates
[2] = tested on: Anaerobiospirillum thomasii; type: cell-based; details: 13 isolates
Porphyromonas macaccae = type: cell-based; details: 13 isolates
[3] = tested on: Fusobacterium spp. group 2; type: cell-based, Fusobacterium mortiferum, necrogenes, ulcerans; details: Fusobacterium, 12 isolates
Clostridium dfficile = type: cell-based, Clostridium difficile; details: Clostridium
Fusobacterium russii = type: cell-based; details: Fusobacterium russii
Bacteroides tectum = type: cell-based; details: 22 isolates
[4] = tested on: Clostridium clostridioforme; type: cell-based; details: Clostridium, 11 isolates
Clostridium ramosum = type: cell-based; details: Thomasclavelia ramosa, 10 isolates
[5] = tested on: Fusobacterium spp group 1; type: cell-based; details: Fusobacterium, 19 isolates
[6] = tested on: Actinomyces odontolyticus; type: cell-based; details: Schaalia odontolytica, 10 isolates
[7] = tested on: Peptostreptococcus magnus; type: cell-based; details: Finegoldia magna, 13 isolates
Clostridium inocuum = type: cell-based, Clostridium innocuum; details: Clostridium, 11 isolates
[8] = tested on: Prevotella denticola/loeschii group; type: cell-based; details: 6 isolates
Porphyromonas spp. = type: cell-based, Porphyromonas cangingivalis, cansulci, circumdentaria, levii; details: 11 isolates
[9] = tested on: Peptostreptococcus micros; type: cell-based; details: 12 isolates
Actinomyces israelii = type: cell-based; details: Actinomyces israelii, read-out: Minimal Inhibitory Concentration 50% (MIC50); 6 isolates
Veillonella spp. = type: cell-based; details: Veillonella, 24 isolates
Porphyromonas canoris = type: cell-based; details: 10 isolates
[10] = tested on: Porphyromonas asaccharolyticus; type: cell-based, Porphyromonas asaccharolytica; details: Porphyromonas, 11 isolates
[11] = tested on: Anaerobiospirillum succiniciproducens; type: cell-based; details: 3 isolates
Bilophila wadsworthia = type: cell-based; details: 16 isolates, agar supplemented with pyruvate
Fusobacterium varium = type: cell-based; details: Fusobacterium varium, 17 isolates
Prevotella bivia = type: cell-based; details: Prevotella bivia, 21 isolates
[12] = tested on: Prevotella buccae-oris group; type: cell-based; details: 22 isolates
[13] = tested on: Prevotella heparinolytica; type: cell-based; details: 16 isolates
Bacteroides ureolyticus = type: cell-based; details: 17 isolates
[14] = tested on: Peptostreptococcus prevotii; type: cell-based; details: Anaerococcus prevotii, read-out: Minimal Inhibitory Concentration 50% (MIC50); 9 isolates
Bacteroides gracilis = type: cell-based, Bacteroides gracilis (Campylobacter gracilis); details: 11 isolates
Porphyromonas gingivalis = type: cell-based; details: 13 isolates
[15] = tested on: Peptostreptococcus asaccharolyticus; type: cell-based; details: Peptoniphilus asaccharolyticus, 11 isolates
[16] = read-out: Minimal Inhibitory Concentration 90% (MIC90)
[17] = read-out: Minimal Inhibitory Concentration 50% (MIC50)
[18] = Porphyromonas, read-out: Minimal Inhibitory Concentration 50% (MIC50)
[19] = Porphyromonas, read-out: Minimal Inhibitory Concentration 90% (MIC90)

CC[C@H]1OC(=O)[C@H](C)[C@@H](O[C@H]2C[C@@](C)(OC)[C@@H](O)[C@H](C)O2)[C@H](C)[C@@H](O[C@@H]2O[C@H](C)C[C@H](N(C)C)[C@H]2O)[C@](C)(OC)C[C@@H](C)C(=O)[C@H](C)[C@@H](O)[C@]1(C)O [Clarithromycin]
≤ 0.015 µg/mL: MIC50 (Prevotella intermedia; [17]) | MIC90 [6, 16] | MIC50 [6, 17] | MIC50 (Actinomyces israelii)
8 µg/mL: MIC50 ([5]; GROUP1, read-out: Minimal Inhibitory Concentration 50% (MIC50))
> 32 µg/mL: MIC50 [3, 17] | MIC90 [3, 16] | MIC90 (Clostridium dfficile; read-out: Minimal Inhibitory Concentration 90% (MIC90), 14 isolates) | MIC90 (Fusobacterium russii; [16]) | MIC90 [4, 16] | MIC90 (Clostridium ramosum; [16]) | MIC90 [7, 16] | MIC90 (Clostridium inocuum; [16]) | MIC50 (Clostridium inocuum; [17]) | MIC90 (Veillonella spp.; [16]) | MIC90 [10, 16] | MIC50 (Fusobacterium varium; [17]) | MIC90 (Fusobacterium varium; [16]) | MIC50 [14] | MIC90 [15, 16]
0.125 to 4 µg/mL: Minimal Inhibitory Concentration Range (Bacteroides ureolyticus)
1 µg/mL: MIC90 ([1]; Prevotella melaninogenica, read-out: Minimal Inhibitory Concentration 90% (MIC90)) | MIC90 (Bacteroides gracilis; Campylobacter gracilis, read-out: Minimal Inhibitory Concentration 90% (MIC90)) | MIC50 (Bacteroides gracilis; Campylobacter gracilis, read-out: Minimal Inhibitory Concentration 50% (MIC50))
0.6 µg/mL: Minimal Inhibitory Concentration Range [9]
0.06 µg/mL: MIC50 ([8]; Prevotella denticola, read-out: Minimal Inhibitory Concentration 50% (MIC50)) | MIC50 (Porphyromonas spp.; [18]) | MIC50 (Porphyromonas canoris; Porphyromonas canoris, read-out: Minimal Inhibitory Concentration 50% (MIC50)) | MIC50 [10, 17] | MIC50 (Porphyromonas gingivalis; Porphyromonas gingivalis, read-out: Minimal Inhibitory Concentration 50% (MIC50))
32 µg/mL: MIC90 ([5]; GROUP1, read-out: Minimal Inhibitory Concentration 90% (MIC90)) | MIC50 ([11]; Anaerobiospirillum succiniciproducens, read-out: Minimal Inhibitory Concentration 50% (MIC50)) | MIC90 (Bilophila wadsworthia; Bilophila wadsworthia, read-out: Minimal Inhibitory Concentration 90% (MIC90))
2 µg/mL: MIC50 [7, 17] | MIC90 (Bacteroides ureolyticus; Campylobacter ureolyticus, read-out: Minimal Inhibitory Concentration 90% (MIC90)) | MIC50 [15, 17]
4 to 32 µg/mL: Minimal Inhibitory Concentration Range (Bilophila wadsworthia)
0.125 µg/mL: MIC50 ([1]; Prevotella melaninogenica, read-out: Minimal Inhibitory Concentration 50% (MIC50)) | MIC90 (Prevotella intermedia; [16]) | MIC50 (Porphyromonas macaccae; [18]) | MIC90 (Porphyromonas macaccae; [19]) | Minimal Inhibitory Concentration Range (Bacteroides tectum) | MIC90 (Bacteroides tectum; Bacteroides pyogenes, read-out: Minimal Inhibitory Concentration 90% (MIC90)) | MIC50 (Bacteroides tectum; Bacteroides pyogenes, read-out: Minimal Inhibitory Concentration 50% (MIC50)) | MIC90 (Porphyromonas spp.; [19]) | MIC90 (Porphyromonas canoris; Porphyromonas canoris, read-out: Minimal Inhibitory Concentration 90% (MIC90)) | MIC50 (Prevotella bivia; [17]) | MIC50 ([12]; Prevotella, read-out: Minimal Inhibitory Concentration 50% (MIC50)) | MIC90 ([13]; Prevotella heparinolytica, read-out: Minimal Inhibitory Concentration 90% (MIC90)) | MIC50 ([13]; Prevotella heparinolytica, read-out: Minimal Inhibitory Concentration 50% (MIC50)) | MIC90 (Porphyromonas gingivalis; Porphyromonas gingivalis, read-out: Minimal Inhibitory Concentration 90% (MIC90))
0.25 to 2 µg/mL: Minimal Inhibitory Concentration Range (Bacteroides gracilis)
0.06 to 4 µg/mL: Minimal Inhibitory Concentration Range [1]
0.06 to 1 µg/mL: Minimal Inhibitory Concentration Range [12]
4 µg/mL: MIC50 ([2]; Anaerobiospirillum thomasii, read-out: Minimal Inhibitory Concentration 50% (MIC50)) | MIC50 (Fusobacterium russii; [17]) | MIC50 [4, 17]
8 to 32 µg/mL: Minimal Inhibitory Concentration Range [11]
0.5 µg/mL: MIC50 (Clostridium dfficile; [17]) | MIC50 (Clostridium ramosum; [17]) | MIC50 ([9]; Parvimonas micra, read-out: Minimal Inhibitory Concentration 50% (MIC50)) | MIC90 ([9]; Parvimonas micra, read-out: Minimal Inhibitory Concentration 90% (MIC90)) | MIC50 (Bacteroides ureolyticus; Campylobacter ureolyticus, read-out: Minimal Inhibitory Concentration 50% (MIC50))
16 µg/mL: MIC90 ([2]; Anaerobiospirillum thomasii, read-out: Minimal Inhibitory Concentration 90% (MIC90)) | MIC50 (Veillonella spp.; [17]) | MIC50 (Bilophila wadsworthia; Bilophila wadsworthia, read-out: Minimal Inhibitory Concentration 50% (MIC50))
0.06 to 0.125 µg/mL: Minimal Inhibitory Concentration Range (Porphyromonas macaccae) | Minimal Inhibitory Concentration Range (Porphyromonas spp.) | Minimal Inhibitory Concentration Range (Porphyromonas canoris) | Minimal Inhibitory Concentration Range [13] | Minimal Inhibitory Concentration Range (Porphyromonas gingivalis)
0.03 to 2 µg/mL: Minimal Inhibitory Concentration Range [8]
0.25 µg/mL: MIC90 (Prevotella bivia; [16]) | MIC90 ([12]; Prevotella, read-out: Minimal Inhibitory Concentration 90% (MIC90))
2 to 32 µg/mL: Minimal Inhibitory Concentration Range [2]
